Measured values: patent US20080274213A1, “Drug for Ameliorating Male Climacteric Disorders” (WAKUNAGA PHARMACEUTICAL CO., LTD., priority 2004, published 2008)

Tested on: restraint stress-loaded ddY male mice
Experiment: Test on inhibition of reduction in blood testosterone concentration (restraint stress-loaded mice)
Format: in vivo
Details: tested likewise, dose of the components not given
Protocol: The Codonopsis lanceolata extract obtained in Example 1 was used to investigate inhibitory effect on reduction in blood testosterone concentration caused by aging and stress according to the following procedures: seven-month-old ddY male mice (10 mice per group) were orally given 1 g/kg of the test substance once a day over 2 weeks. On the last administration day, the mice were loaded with restraint stress after 1 hour of test substance administration. The restraint stress loading was performed by wrapping soft wire nets around the mouse bodies and allowing the mice to abstain from food and drink for 16 hours (17:00 to 9:00). Immediately after the termination of the loading, their blood testosterone concentrations were measured. A significant difference test used was the Student's t-test.

Row | Compound | inhibitory effect on reduction in blood testosterone concentration (isolated components)
1 | CC1OC(OC2C(OC(=O)[C@]34CCC(C)(C)C[C@@]3(C)C3=CCC5[C@@]6(C)CC[C@H](OC7OC(C(=O)O)C(O)C(O)C7O)C(C)(C)C6CC[C@@]5(C)[C@]3(C)C[C@H]4O)OCC(O)C2O)C(O)C(O)C1OC1OCC(O)C(OC2OCC(O)C(O)C2O)C1O (some centres unmarked) [lancemaside-A] | the inhibitory effect was also observed
2 | tangshenoside I | the inhibitory effect was also observed
